The text below walks through data of article PMC9421655, “Novel Antagonist of the Type 2 Lysophosphatidic Acid Receptor (LPA2), UCM-14216, Ameliorates Spinal Cord Injury in Mice” (Journal of Medicinal Chemistry, 2022).

Series [1] concerns the target T1, LPA2 (Homo sapiens, UniProt Q9HBW0).
T1 construct: expressed in transfected cells
Kind of series: Ca2+ mobilization assay, antagonist activity at LPA2. It is filed as cell-based. How it is done:
(§1) Cells stably expressing the corresponding LPA1–3 receptor were grown as described previously.[18] Changes in intracellular calcium levels were measured by using the fluorescent calcium sensitive dye Fluo-4 NW (Invitrogen). RH7777 cells or B103 cells were plated on poly-D-lysine or collagen coated, respectively, black-wall clear-bottom 96-well plates (Corning) at a density of 50 000 cells/well and cultured overnight. The culture medium was then replaced with 100 μL of Fluo-4 NW dye loading solution containing 2.5 μM of probenecid and incubated for 30 min at 37 °C followed by an additional 30 min at rt. […] Fluorescence changes were registered in a FluoStar Optima instrument (BMG Labtech) at 525 nm using an excitation wavelength of 494 nm. […] The data presented are from two to four independent experiments carried out in triplicate or quadruplicate. Dose–response curves were generated and IC50 values calculated by nonlinear regression analysis using Prism software version 5 (GraphPad Software Inc., San Diego, CA, USA).
Figure S2. Dose response curves for compounds 13, 44, 53, 54, and 55. B103 cells stably expressing LPA2 receptor were incubated with different concentrations of the compound under study and […]
Curves were generated with PRISM software version 5 (GraphPad Software Inc, San Diego, CA, USA) using nonlinear regression analysis. Each data point corresponds to the mean±SEM of two to four independent experiments carried out in triplicate or quadruplicate.

Series [2] deals with LPA1 (Homo sapiens, UniProt Q92633). The series can be described thus: cell-based. The note with it: maximum blockade of activation induced by 10 μM LPA (18:1) at 10 μM compound; N.E. = no effect at 10 μM. Here is the method: as §1
LPA1, sequence (Q92633 whole entry, species assumed): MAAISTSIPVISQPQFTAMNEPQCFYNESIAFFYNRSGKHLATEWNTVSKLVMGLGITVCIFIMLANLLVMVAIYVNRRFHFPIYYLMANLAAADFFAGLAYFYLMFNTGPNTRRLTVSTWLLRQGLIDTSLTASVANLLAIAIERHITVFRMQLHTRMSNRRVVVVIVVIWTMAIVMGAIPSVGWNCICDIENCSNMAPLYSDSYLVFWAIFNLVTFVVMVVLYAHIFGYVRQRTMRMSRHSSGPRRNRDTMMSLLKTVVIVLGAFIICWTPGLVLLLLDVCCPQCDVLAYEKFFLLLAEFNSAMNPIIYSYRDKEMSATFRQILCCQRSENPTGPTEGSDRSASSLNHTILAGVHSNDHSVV
Series [3] concerns the target T2, LPA3 (Homo sapiens, UniProt Q9UBY5).
T2 sequence (Q9UBY5 1-353): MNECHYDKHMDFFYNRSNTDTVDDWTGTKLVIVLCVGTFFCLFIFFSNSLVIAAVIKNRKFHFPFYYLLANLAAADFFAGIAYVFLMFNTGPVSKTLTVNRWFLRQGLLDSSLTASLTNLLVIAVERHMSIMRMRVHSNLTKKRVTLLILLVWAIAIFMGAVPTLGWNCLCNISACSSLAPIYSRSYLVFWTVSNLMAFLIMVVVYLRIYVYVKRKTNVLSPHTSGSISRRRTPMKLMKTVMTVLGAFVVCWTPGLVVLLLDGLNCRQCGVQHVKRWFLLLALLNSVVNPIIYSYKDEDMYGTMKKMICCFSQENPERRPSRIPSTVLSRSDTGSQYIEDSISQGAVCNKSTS
Kind of series: cell-based. As to conditions: for Emax (%) LPA3: maximum blockade of activation induced by 10 μM LPA (18:1) at 10 μM compound, N.E. = no effect at 10 μM. How it is done: as §1

T1 sequence (Q9HBW0 whole entry, species assumed): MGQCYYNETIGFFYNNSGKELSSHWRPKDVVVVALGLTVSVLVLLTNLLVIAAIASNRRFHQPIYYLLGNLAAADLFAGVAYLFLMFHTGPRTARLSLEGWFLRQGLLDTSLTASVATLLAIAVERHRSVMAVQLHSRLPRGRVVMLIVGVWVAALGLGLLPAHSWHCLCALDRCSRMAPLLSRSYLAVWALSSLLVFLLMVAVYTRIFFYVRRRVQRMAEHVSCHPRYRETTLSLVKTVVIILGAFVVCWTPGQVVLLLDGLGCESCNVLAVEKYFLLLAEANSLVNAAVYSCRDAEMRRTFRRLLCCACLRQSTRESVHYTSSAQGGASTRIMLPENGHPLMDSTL

The term Emax denotes the size of the effect at its maximum, as opposed to the concentration needed. One may read the melting point as the temperature of the solid-liquid transition. For the compound `O=C(O)COc1ccc(-c2cc[nH]n2)c(O)c1` [Compound 2, [3-Hydroxy-4-(1H-pyrazol-3-yl)phenoxy]acetic Acid], the melting point was 92 to 94 °C. The Emax at 10 µM in series [1] is 7 ± 3%.
For the compound `Cc1[nH]nc(-c2ccc(OCC(=O)O)cc2O)c1Oc1ccccc1` [Compound 3, [3-Hydroxy-4-(5-methyl-4-phenoxy-1H-pyrazol-3-yl)phenoxy]acetic Acid], the melting point is > 180 °C (dec.). Further, the “Emax (%) LPA1” value in series [2] is given as “N.E”. Besides, the “Emax (%) LPA3” value in series [3] is on record as “N.E”. For the same compound, in series [1], the Emax at 10 µM was 20 ± 7%.
Turning to `Cc1[nH]nc(-c2ccc(OCC(=O)O)cc2O)c1Oc1cccc(Cl)c1` [Compound 10, {4-[4-(3-Chlorophenoxy)-5-methyl-1H-pyrazol-3-yl]-3-hydroxyphenoxy}acetic Acid], the melting point was > 240 °C (dec.). For the same compound, the “Emax (%) LPA1” value in series [2] was “N.E”. Also, the “Emax (%) LPA3” value in series [3] is on record as “N.E”. In series [1], this compound registered an Emax at 10 µM of 45 ± 8%.
`Cc1[nH]nc(-c2ccc(OCC(=O)O)cc2O)c1Oc1ccc(Cl)cc1` [Compound 11, {4-[4-(4-Chlorophenoxy)-5-methyl-1H-pyrazol-3-yl]-3-hydroxyphenoxy}acetic Acid] showed a melting point of 121 to 123 °C. The “Emax (%) LPA1” value in series [2] is “N.E”. Further, the “Emax (%) LPA3” value in series [3] is reported as “N.E”. The compound further displayed an Emax at 10 µM in series [1] of 60 ± 9%.
For the compound `Cc1[nH]nc(-c2ccc(OCC(=O)O)cc2)c1Oc1ccc(Cl)cc1Cl` [Compound 30, 4-(2,4-Dichlorophenoxy)-3-(4-carboxymethoxyphenyl)-5-methyl-1H-pyrazole], the melting point fell in the range of 158 to 160 °C. In series [1], this compound gave an Emax at 10 µM of 11%.
With `Cc1[nH]nc(-c2ccc(OCCC(=O)O)cc2O)c1Oc1ccc(Cl)cc1Cl` [Compound 36, 3-{4-[4-(2,4-Dichlorophenoxy)-5-methyl-1H-pyrazol-3-yl]-3-hydroxyphenoxy}propanoic Acid], the “Emax (%) LPA1” value in series [2] is “N.E”. Further, in series [3], the “Emax (%) LPA3” value was “N.E”. This compound also had an Emax at 10 µM in series [1] of 67 ± 7%.
`Cc1[nH]nc(-c2ccc(OCCCC(=O)O)cc2O)c1Oc1ccc(Cl)cc1Cl` [Compound 37, 4-{4-[4-(2,4-Dichlorophenoxy)-5-methyl-1H-pyrazol-3-yl]-3-hydroxyphenoxy}butanoic Acid]: the “Emax (%) LPA1” value in series [2] is “N.E”. For the same compound, in series [3], the “Emax (%) LPA3” value is recorded as “N.E”. This compound also yielded an Emax at 10 µM in series [1] of 43 ± 12%.
As to `Cc1[nH]nc(-c2ccc(OCCCCC(=O)O)cc2O)c1Oc1ccc(Cl)cc1Cl` [Compound 38, 5-{4-[4-(2,4-Dichlorophenoxy)-5-methyl-1H-pyrazol-3-yl]-3-hydroxyphenoxy}pentanoic Acid], the “Emax (%) LPA1” value in series [2] is listed as “N.E”. Also, in series [3], the “Emax (%) LPA3” value is “N.E”. Besides, the Emax at 10 µM in series [1] came out at 21 ± 8%.
As for `Cc1[nH]nc(-c2ccc(OCC(N)=O)cc2O)c1Oc1ccc(Cl)cc1Cl` [Compound 45, 2-{4-[4-(2,4-Dichlorophenoxy)-5-methyl-1H-pyrazol-3-yl]-3-hydroxyphenoxy}acetamide], in series [2], the “Emax (%) LPA1” value is given as “N.E”. Besides, the “Emax (%) LPA3” value in series [3] is given as “N.E”. The Emax at 10 µM in series [1] was found to be 44 ± 7%.
In the case of `Cc1c(Oc2ccc(Cl)cc2Cl)c(-c2ccc(OCC(=O)O)cc2O)nn1C` [Compound 47, {4-[4-(2,4-Dichlorophenoxy)-1,5-dimethyl-1H-pyrazol-3-yl]-3-hydroxyphenoxy}acetic Acid], the “Emax (%) LPA1” value in series [2] is on record as “N.E”. Besides, the maximal response (Emax) in series [3] (read-out: Emax (%) LPA3) amounted to 47 ± 7%. In series [1], the Emax at 10 µM amounted to 73 ± 10%.
For the compound `O=C(O)COc1ccc(-c2n[nH]cc2Oc2ccc(Cl)cc2Cl)c(O)c1` [Compound 48, {4-[4-(2,4-Dichlorophenoxy)-1H-pyrazol-3-yl]-3-hydroxyphenoxy}acetic Acid], in series [2], the “Emax (%) LPA1” value is reported as “N.E”. For the same compound, in series [3], the “Emax (%) LPA3” value is reported as “N.E”. Moreover, the Emax at 10 µM in series [1] was found to be 35 ± 8%.
“{4-[4-(2,4-Dichlorophenoxy)-3-methyl-1,2-oxazol-3-yl]-3-hydroxyphenoxy}acetic Acid [Compound 49]”: the “Emax (%) LPA1” value in series [2] is listed as “N.E”. Besides, in series [3], the “Emax (%) LPA3” value was found to be 71 ± 4%. In addition, in series [1] (maximum blockade of activation induced by 10 μM LPA (18:1) at 10 μM compound), the “Emax (%) LPA2” value is reported as 58 ± 3%.
